These results are taken from patent US9169205B2, “Pyrrolidine derivatives, pharmaceutical compositions and uses thereof” (Boehringer Ingelheim International GmbH, priority 2012, dated 2015).

Chain of human ACC2 (O00763 129-2458): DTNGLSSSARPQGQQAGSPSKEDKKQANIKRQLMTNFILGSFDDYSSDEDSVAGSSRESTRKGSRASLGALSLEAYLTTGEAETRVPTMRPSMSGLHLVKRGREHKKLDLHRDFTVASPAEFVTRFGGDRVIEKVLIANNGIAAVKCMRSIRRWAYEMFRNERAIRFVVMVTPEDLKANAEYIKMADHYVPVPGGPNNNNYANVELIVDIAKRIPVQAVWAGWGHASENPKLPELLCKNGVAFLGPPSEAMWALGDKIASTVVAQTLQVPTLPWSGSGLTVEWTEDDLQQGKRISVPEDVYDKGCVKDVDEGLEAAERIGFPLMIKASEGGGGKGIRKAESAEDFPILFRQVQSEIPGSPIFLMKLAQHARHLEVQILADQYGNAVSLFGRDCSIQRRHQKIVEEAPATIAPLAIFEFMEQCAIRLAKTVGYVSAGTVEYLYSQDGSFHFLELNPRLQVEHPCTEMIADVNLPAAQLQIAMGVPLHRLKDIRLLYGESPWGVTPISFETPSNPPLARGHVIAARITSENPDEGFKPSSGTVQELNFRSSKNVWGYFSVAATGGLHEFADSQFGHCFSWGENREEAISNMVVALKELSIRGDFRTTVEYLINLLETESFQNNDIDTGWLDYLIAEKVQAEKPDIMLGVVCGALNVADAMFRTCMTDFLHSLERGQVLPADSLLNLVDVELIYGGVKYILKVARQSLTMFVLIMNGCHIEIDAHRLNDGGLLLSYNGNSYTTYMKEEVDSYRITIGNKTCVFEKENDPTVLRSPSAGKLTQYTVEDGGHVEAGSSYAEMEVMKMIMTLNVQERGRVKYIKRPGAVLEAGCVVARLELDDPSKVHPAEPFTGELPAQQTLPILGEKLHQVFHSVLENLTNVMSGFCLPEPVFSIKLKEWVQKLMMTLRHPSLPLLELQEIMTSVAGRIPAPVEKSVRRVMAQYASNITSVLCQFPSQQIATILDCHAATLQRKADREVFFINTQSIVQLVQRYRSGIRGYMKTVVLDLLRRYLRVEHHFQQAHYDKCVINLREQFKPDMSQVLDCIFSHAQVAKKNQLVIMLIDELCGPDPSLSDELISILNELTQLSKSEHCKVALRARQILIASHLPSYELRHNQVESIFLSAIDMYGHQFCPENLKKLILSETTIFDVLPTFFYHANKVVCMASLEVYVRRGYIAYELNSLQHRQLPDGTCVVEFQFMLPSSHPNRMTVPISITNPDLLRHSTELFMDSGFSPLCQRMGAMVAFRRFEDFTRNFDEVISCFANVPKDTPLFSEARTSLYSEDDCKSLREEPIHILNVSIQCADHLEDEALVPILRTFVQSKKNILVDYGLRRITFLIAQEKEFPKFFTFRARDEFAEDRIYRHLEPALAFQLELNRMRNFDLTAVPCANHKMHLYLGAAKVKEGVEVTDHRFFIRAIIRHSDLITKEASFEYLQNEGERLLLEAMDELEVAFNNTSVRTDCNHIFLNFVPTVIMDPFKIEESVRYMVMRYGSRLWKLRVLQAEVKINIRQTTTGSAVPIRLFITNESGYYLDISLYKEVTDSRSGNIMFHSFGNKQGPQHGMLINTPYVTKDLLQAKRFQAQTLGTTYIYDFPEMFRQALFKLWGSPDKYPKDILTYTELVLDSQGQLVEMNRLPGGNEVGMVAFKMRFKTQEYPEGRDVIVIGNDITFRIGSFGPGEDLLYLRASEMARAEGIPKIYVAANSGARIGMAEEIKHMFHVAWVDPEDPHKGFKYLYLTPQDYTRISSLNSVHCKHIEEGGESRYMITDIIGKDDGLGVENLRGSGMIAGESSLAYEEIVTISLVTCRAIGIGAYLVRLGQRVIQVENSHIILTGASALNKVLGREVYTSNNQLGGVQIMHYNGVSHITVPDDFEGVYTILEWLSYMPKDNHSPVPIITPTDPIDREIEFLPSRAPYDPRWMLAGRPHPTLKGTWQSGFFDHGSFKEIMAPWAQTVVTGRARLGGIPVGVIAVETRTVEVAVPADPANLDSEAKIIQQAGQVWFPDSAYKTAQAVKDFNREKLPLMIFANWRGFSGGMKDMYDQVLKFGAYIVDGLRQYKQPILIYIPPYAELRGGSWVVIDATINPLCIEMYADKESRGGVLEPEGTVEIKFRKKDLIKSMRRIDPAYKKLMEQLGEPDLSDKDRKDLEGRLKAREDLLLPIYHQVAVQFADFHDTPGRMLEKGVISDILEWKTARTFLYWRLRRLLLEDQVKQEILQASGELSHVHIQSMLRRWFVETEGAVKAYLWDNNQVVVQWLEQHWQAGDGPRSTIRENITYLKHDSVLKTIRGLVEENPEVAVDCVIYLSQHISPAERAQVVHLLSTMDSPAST

The test has as its target human ACC2 (Homo sapiens (Human), UniProt O00763). The test can be described thus: ACC2 assay (spectrophotometric 384 well assay, NADH-linked kinetic method). It is filed as biochemical. To be noted: hACC2 construct lacking 128 N-terminal amino acids, 25° C., 340 nm. On the procedure:
Spectrophotometric 384 Well Assay
Malonyl CoA formation by acetyl CoA carboxylases is stoichometrically linked to the consumption of ATP. ACC2 activity is measured in a NADH-linked kinetic method measuring ADP generated during the ACC reaction using a coupled lactate dehydrogenase/pyruvate kinase reaction.
The protein is then expressed in insect cells using a baculoviral expression system. Protein purification is performed by anion exchange.
All compounds are dissolved in dimethyl sulfoxide (DMSO) to a concentration of 10 mM.
The enzymatic reaction is then started by addition of a mixture of NADH, acetyl Coenzyme A (both 200 μM f.c.) and ATP (500 uM f.c.). The decrease of the optical density (slope S) is then determined at 25° C. at a wavelength of 340 nm over 15 minutes in a spectrophotometric reader.
Each assay microtiter plate contains wells with vehicle instead of compound as controls for the non-inhibited enzyme (100% CTL; ‘HIGH’) and wells without acetyl-CoA as controls for non-specific NADH degradation (0% CTL; ‘LOW’).
For the compound `C[C@H](NC(=O)C1CCC(=O)N1)c1ccc(O[C@@H]2CCN(c3ccc(OCC4CC4)cc3)C2)cc1` (some centres unmarked) [Example 2.2], the IC50 – broadly, the concentration that inhibits the measured activity by half – was 0.671 µM.

On to `CC(O)C(=O)N[C@@H](C)c1ccc(O[C@@H]2CCN(c3ccc(OCC4CC4)cc3)C2)cc1` (some centres unmarked) [Example 2.33], for which the midpoint of inhibition, the IC50, lay at 0.793 µM.

On to `CCOc1ccc(N2CCC(Oc3ccc([C@H](C)NC(C)=O)cc3)C2)c(C)c1` (some centres unmarked) [Example 1.87], for which the IC50 is 0.108 µM. Against the preceding compound, the IC50 is about 7.3-fold lower.

`Cc1[nH]ncc1C(=O)N[C@@H](C)c1ccc(O[C@@H]2CCN(c3ccc(OCC4CC4)cc3)C2)cc1` [Example 2.26] had an IC50 of 0.047 µM. This IC50 lies about 2.3-fold lower than the previous one.

For `CC(C)Oc1ccc(N2CCC(Oc3ccc([C@H](C)NC(=O)N4CCOCC4)cc3)C2)cc1` (some centres unmarked) [Example 3.12], half-maximal inhibition (IC50) required 1.28 µM.

For the compound `C[C@H](NC(=O)c1cnn(C)c1N)c1ccc(O[C@@H]2CCN(c3ccc(OCC4CC4)cc3)C2)cc1` [Example 2.50], inhibition was half-maximal at 0.065 µM (IC50).

As for `CC(=O)N[C@@H](C)c1ccc(OC2CCN(c3ccc(F)c(C(F)(F)F)c3)C2)cc1` (some centres unmarked) [Example 1.34], the IC50 was 0.224 µM.

Turning to `COCCOC1CN(c2ccc(OCC3CC3)cc2)CC1Oc1ccc([C@H](C)NC(C)=O)cc1` (some centres unmarked) [Example 1.77], half-maximal inhibition (IC50) required 0.749 µM.

As for `CC(=O)N[C@@H](C)c1ccc(OC2CCN(c3ccc4c(c3)OCC(C)(C)CO4)C2)cc1` (some centres unmarked) [Example 1.18], the IC50 was 0.214 µM.

With `C[C@H](NC(=O)Cc1cncnc1)c1ccc(O[C@@H]2CCN(c3ccc(OCC4CC4)cc3)C2)cc1` [Example 2.7], the IC50 stood at 0.121 µM.

On to `CC(=O)N[C@@H](C)c1ccc(OC2CCN(c3ccc(OCC(F)(F)F)cc3)C2)cc1` (some centres unmarked) [Example 1.78], for which the IC50 amounted to 0.546 µM.

`CC(=O)N[C@@H](C)c1ccc(OC2CCN(c3ccc(OCCC(F)F)cc3)C2)cc1` (some centres unmarked) [Example 1.90] gave an IC50 of 0.04 µM.

In turn, `CCOc1ccc(N2CCC(Oc3ccc([C@H](C)NC(C)=O)cc3)C2)cc1` (some centres unmarked) [Example 1.2] displayed an IC50 of 0.198 µM. This IC50 is about 5-fold higher than that of the compound before.

`CCN(C)C(=O)N[C@@H](C)c1ccc(OC2CCN(c3ccc(OCC4CC4)cc3)C2)cc1` (some centres unmarked) [Example 3.4] registered an IC50 of 0.165 µM.

With `Cc1cc(OC2CC2)ccc1N1CCC(Oc2ccc([C@H](C)NC(=O)N(C)C)cc2)C1` (some centres unmarked) [Example 1.68], the IC50 is 0.566 µM.

As to `COCCOc1ccc(N2CCC(Oc3ccc([C@H](C)NC(C)=O)cc3)C2)c(F)c1` (some centres unmarked) [Example 1.38], the IC50 stood at 0.685 µM.

The compound `Cc1cc(OC2CC2)ccc1N1CC[C@@H](Oc2ccc([C@H](C)NC(=O)c3cn[nH]c3)cc2)C1` [Example 2.64] showed an IC50 of 0.357 µM.

In the case of `Cc1nocc1C(=O)N[C@@H](C)c1ccc(O[C@@H]2CCN(c3ccc(OCC4CC4)cc3)C2)cc1` [Example 2.37], the IC50 is 0.065 µM.

`CC(=O)N[C@@H](C)c1ccc(OC2CCN(c3ccc(OCC4CC4(F)F)cc3F)C2)cc1` (some centres unmarked) [Example 1.41] registered an IC50 of 0.045 µM.

In turn, `CCOc1ccc(N2CC[C@@H](Oc3ccc([C@H](C)NC(=O)c4sc(NC(=O)COCc5ccccc5)nc4C)cc3)C2)cc1` [Example 2.54] gave an IC50 of 0.045 µM.

`CC(=O)N[C@@H](C)c1ccc(O[C@H]2CCN(c3ccc(OC4CC4)cc3C)C2)cc1` [Example 1.104]: the IC50 was 0.363 µM.

In turn, `CC(=O)N[C@@H](C)c1ccc(O[C@H]2CCN(c3ccc(OCC4CC4)cc3)C2)cc1` [Example 1.48] yielded an IC50 of 0.18 µM.

Turning to `CCOc1cccc(N2CC[C@@H](Oc3ccc([C@H](C)NC(C)=O)cc3)C2)c1` [Example 1.5], the IC50 stood at 0.204 µM.

The compound `CO[C@@H]1CN(c2ccc(OCC3CC3)cc2)CC1Oc1ccc([C@H](C)NC(C)=O)cc1` (some centres unmarked) [Example 1.51] gave an IC50 of 0.175 µM.

Compound `CCOC(=O)C1(Oc2ccc(N3CCC(Oc4ccc([C@H](C)NC(C)=O)cc4)C3)cc2)CCC1` (some centres unmarked) [Example 4.2] showed an IC50 of 0.309 µM. This IC50 lies about 1.8-fold higher than the previous one.

As to `CCOc1ccc(N2CCC(Oc3ccc([C@H](C)NC(C)=O)cc3)C2)c(F)c1` (some centres unmarked) [Example 1.19], the IC50 amounted to 0.24 µM. This IC50 and that of the compound before are within 1.5-fold of each other.

Take `C[C@H](NC(=O)c1c[nH]nc1C#N)c1ccc(O[C@@H]2CCN(c3ccc(OCC4CC4)cc3)C2)cc1` [Example 2.57]: half-maximal inhibition (IC50) required 0.122 µM.

In turn, `CC(=O)N[C@@H](C)c1ccc(OC2CCN(c3cccc(Cl)c3)C2)cc1` (some centres unmarked) [Example 1.53] gave an IC50 of 0.204 µM.

Regarding `CC(=O)N[C@@H](C)c1ccc(OC2CCN(c3ccc(OCC4CC4)cc3)C2)cn1` (stereo partly drawn) [Example 7.1, N—((S)-1-(5-((R)-1-(4-(Cyclopropylmethoxy)phenyl)pyrrolidin-3-ylox)pyridin-2-yl)ethyl)acetamide], half-maximal inhibition (IC50) required 1.78 µM. This IC50 lies about 8.7-fold higher than the previous one.

For the compound `C[C@H](NC(=O)N(C)C)c1ccc(O[C@@H]2CCN(c3ccc(OCC4CC4)cc3)C2)cc1` [Example 3.1, 3-((S)-1-(4-((R)-1-(4-(cyclopropylmethoxy)phenyl)pyrrolidin-3-yloxy)phenyl)ethyl)-1,1-dimethylurea], 0.074 µM corresponded to half-maximal inhibition (IC50).

For the compound `CC(=O)N[C@@H](C)c1ccc(OC2CCN(c3cc(C(F)(F)F)ccc3C)C2)cc1` (some centres unmarked) [Example 1.30], the half-inhibitory concentration (IC50) stood at 0.174 µM.

`CC(=O)N[C@@H](C)c1ccc(O[C@@H]2CCN(c3ccc(OCC4CC4)cc3)C2)cc1` [Example 1.1, N—((S)-1-(4-((R)-1-(4-(Cyclopropylmethoxy)phenyl)pyrrolidin-3-yloxy)phenyl)ethyl)-acetamide]: the IC50 amounted to 0.054 µM.

In turn, `CCCOc1ccc(N2CCC(Oc3ccc([C@H](C)NC(C)=O)cc3)C2)c(C#N)c1` (some centres unmarked) [Example 1.13] yielded an IC50 of 0.155 µM.

In the case of `CC(=O)N[C@@H](C)c1ccc(OC2CCN(c3ccc(OCC(F)(F)C(F)F)cc3)C2)cc1` (some centres unmarked) [Example 4.7], inhibition was half-maximal at 0.63 µM (IC50).

`CC(=O)N[C@@H](C)c1ccc(OC2CCN(c3ccc(OC4CC4)cc3C)C2)nc1` (some centres unmarked) [Example 1.103] returned an IC50 of 0.231 µM.

`Cc1oncc1C(=O)N[C@@H](C)c1ccc(O[C@@H]2CCN(c3ccc(OCC4CC4)cc3)C2)cc1` [Example 2.21] gave an IC50 of 0.045 µM.

`Cc1cc(OC2CC2)ccc1N1CC[C@@H](Oc2ccc([C@H](C)NC(=O)c3cnoc3C)cc2)C1` [Example 2.65] gave an IC50 of 0.09 µM.

In turn, `CC(=O)N[C@@H](C)c1ccc(OC2CCN(c3ccc4c(c3)C(C)(C)CO4)C2)cc1` (some centres unmarked) [Example 1.101] returned an IC50 of 0.269 µM.

The compound `CC(=O)N[C@@H](C)c1ccc(OC2CCN(c3ccc(OCC4CCOC4)cc3)C2)cc1` (some centres unmarked) [Example 1.17] came in with an IC50 of 0.894 µM.

`C[C@H](NC(=O)Cc1cnccn1)c1ccc(O[C@@H]2CCN(c3ccc(OCC4CC4)cc3)C2)cc1` [Example 2.3] gave an IC50 of 0.399 µM.

Take `COCCCOc1ccc(N2CCC(Oc3ccc([C@H](C)NC(C)=O)cc3)C2)c(F)c1` (some centres unmarked) [Example 1.37]: half-maximal inhibition (IC50) required 0.484 µM.

In turn, `CCC(=O)N[C@@H](C)c1ccc(O[C@@H]2CCN(c3ccc(OC4CC4)cc3C)C2)cc1` [Example 2.62] returned an IC50 of 0.411 µM.

For `CC(=O)N[C@@H](C)c1ccc(OC2CCN(c3ccc(C)cc3F)C2)cc1` (some centres unmarked) [Example 1.39], the IC50 was determined as 0.791 µM.

In turn, `CCNC(=O)N[C@@H](C)c1ccc(OC2CCN(c3ccc(OCC4CC4)cc3)C2)cc1` (some centres unmarked) [Example 3.2] came in with an IC50 of 0.055 µM.

`CC(=O)N[C@@H](C)c1ccc(OC2CCN(c3ccc(O[C@H]4CCOC4)cc3)C2)cc1` (some centres unmarked) [Example 1.97] returned an IC50 of 0.244 µM.

Turning to `CCOc1ccc(N2CC[C@@H](Oc3ccc([C@H](C)NC(=O)c4sc(NC(=O)CO)nc4C)cc3)C2)cc1` [Example 10, N—((S)-1-(4-((R)-1-(4-Ethoxyphenyl)pyrrolidin-3-yloxy)phenyl)-ethyl)-2-(2-hydroxyacetamido)-4-methylthiazole-5-carboxamide], half-maximal inhibition (IC50) required 0.163 µM.

Turning to `CC(=O)N[C@@H](C)c1ccc(OC2CCN(c3ccc4c(c3)COC4)C2)cc1` (some centres unmarked) [Example 1.75], the IC50 was found to be 0.709 µM.

In turn, `COCC(=O)Nc1nc(C)c(C(=O)N[C@@H](C)c2ccc(OC3CCN(c4ccc(OCC5CC5)cc4)C3)cc2)s1` (some centres unmarked) [Example 2.42] displayed an IC50 of 0.02 µM.

Compound `CC(=O)N[C@H]1C[C@@H](C(=O)N[C@@H](C)c2ccc(O[C@@H]3CCN(c4ccc(OCC5CC5)cc4)C3)cc2)NC1=O` [Example 2.6] returned an IC50 of 0.705 µM.

`CC(=O)N[C@@H](C)c1ccc(OC2CCN(c3ccc(OC(F)F)cc3)C2)cc1` (some centres unmarked) [Example 1.79]: 0.496 µM corresponded to half-maximal inhibition (IC50).

For the compound `CC(=O)N[C@@H](C)c1ccc(OC2CCN(c3ccc(F)cc3F)C2)cc1` (some centres unmarked) [Example 1.35], the IC50 amounted to 0.899 µM.

Take `CCC(=O)Nc1nc(C)c(C(=O)N[C@@H](C)c2ccc(OC3CCN(c4ccc(OCC5CC5)cc4)C3)cc2)s1` (some centres unmarked) [Example 2.41]: the midpoint of inhibition, the IC50, lay at 0.023 µM.

The compound `CC(=O)Nc1nc(C)c(C(=O)N[C@@H](C)c2ccc(O[C@@H]3CCN(c4ccc(OC5CC5)cc4C)C3)cc2)s1` [Example 2.63] returned an IC50 of 0.238 µM. This IC50 lies about 10-fold higher than the previous one.

Compound `C[C@H](NC(=O)C1(C(=O)N(C)C)CC1)c1ccc(O[C@@H]2CCN(c3ccc(OCC4CC4)cc3)C2)cc1` [Example 2.16] returned an IC50 of 0.864 µM.

For the compound `C[C@H](NC(=O)c1cnn(CCO)c1)c1ccc(O[C@@H]2CCN(c3ccc(OCC4CC4)cc3)C2)cc1` [Example 2.51], the IC50 stood at 0.495 µM.

`Cc1cc(C(=O)N[C@@H](C)c2ccc(O[C@@H]3CCN(c4ccc(OCC5CC5)cc4)C3)cc2)no1` [Example 2.15] displayed an IC50 of 0.315 µM.

In turn, `C[C@H](NC(=O)c1c[nH]nc1C(F)(F)F)c1ccc(O[C@@H]2CCN(c3ccc(OCC4CC4)cc3)C2)cc1` [Example 2.48] registered an IC50 of 0.445 µM.

In the case of `COc1ccc(N2CCC(Oc3ccc([C@H](C)NC(C)=O)cc3)C2)cc1F` (some centres unmarked) [Example 1.93], the IC50 was determined as 0.601 µM.

The compound `CC(=O)N[C@@H](C)c1ccc(OC2CCN(c3ccc(OCC4CC4(F)F)c(F)c3)C2)cc1` (some centres unmarked) [Example 1.98] yielded an IC50 of 0.064 µM.
